Experimental data taken from patent US20240025884A1 (Dong-A ST Co., Ltd., priority 2022, published 2024).

biological target: GCN2 (Homo sapiens (Human), UniProt Q9P2K8); assay: GCN2 Biochemical Assay (TR-FRET, GFP-eIF2S1 substrate phosphorylation); settings: read-out: IC50 (GCN2 Inhibitory Activity)
Method in brief: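 In-house GCN2 (1.6 nM 2× stock) phosphorylates GFP-eIF2S1 (50 nM 2× stock) with ATP (0.2 mM 2× stock) and tRNA, pH 7.5, 70 min at room temperature; 10-point 3.16-fold compound series. TR-FRET detection with Tb-anti-phospho antibody, 2–3 h, Ex 340/Em 490/520 nm; artifact plate spiked with phospho-substrate.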

Sequence of GCN2 (Q9P2K8 whole entry): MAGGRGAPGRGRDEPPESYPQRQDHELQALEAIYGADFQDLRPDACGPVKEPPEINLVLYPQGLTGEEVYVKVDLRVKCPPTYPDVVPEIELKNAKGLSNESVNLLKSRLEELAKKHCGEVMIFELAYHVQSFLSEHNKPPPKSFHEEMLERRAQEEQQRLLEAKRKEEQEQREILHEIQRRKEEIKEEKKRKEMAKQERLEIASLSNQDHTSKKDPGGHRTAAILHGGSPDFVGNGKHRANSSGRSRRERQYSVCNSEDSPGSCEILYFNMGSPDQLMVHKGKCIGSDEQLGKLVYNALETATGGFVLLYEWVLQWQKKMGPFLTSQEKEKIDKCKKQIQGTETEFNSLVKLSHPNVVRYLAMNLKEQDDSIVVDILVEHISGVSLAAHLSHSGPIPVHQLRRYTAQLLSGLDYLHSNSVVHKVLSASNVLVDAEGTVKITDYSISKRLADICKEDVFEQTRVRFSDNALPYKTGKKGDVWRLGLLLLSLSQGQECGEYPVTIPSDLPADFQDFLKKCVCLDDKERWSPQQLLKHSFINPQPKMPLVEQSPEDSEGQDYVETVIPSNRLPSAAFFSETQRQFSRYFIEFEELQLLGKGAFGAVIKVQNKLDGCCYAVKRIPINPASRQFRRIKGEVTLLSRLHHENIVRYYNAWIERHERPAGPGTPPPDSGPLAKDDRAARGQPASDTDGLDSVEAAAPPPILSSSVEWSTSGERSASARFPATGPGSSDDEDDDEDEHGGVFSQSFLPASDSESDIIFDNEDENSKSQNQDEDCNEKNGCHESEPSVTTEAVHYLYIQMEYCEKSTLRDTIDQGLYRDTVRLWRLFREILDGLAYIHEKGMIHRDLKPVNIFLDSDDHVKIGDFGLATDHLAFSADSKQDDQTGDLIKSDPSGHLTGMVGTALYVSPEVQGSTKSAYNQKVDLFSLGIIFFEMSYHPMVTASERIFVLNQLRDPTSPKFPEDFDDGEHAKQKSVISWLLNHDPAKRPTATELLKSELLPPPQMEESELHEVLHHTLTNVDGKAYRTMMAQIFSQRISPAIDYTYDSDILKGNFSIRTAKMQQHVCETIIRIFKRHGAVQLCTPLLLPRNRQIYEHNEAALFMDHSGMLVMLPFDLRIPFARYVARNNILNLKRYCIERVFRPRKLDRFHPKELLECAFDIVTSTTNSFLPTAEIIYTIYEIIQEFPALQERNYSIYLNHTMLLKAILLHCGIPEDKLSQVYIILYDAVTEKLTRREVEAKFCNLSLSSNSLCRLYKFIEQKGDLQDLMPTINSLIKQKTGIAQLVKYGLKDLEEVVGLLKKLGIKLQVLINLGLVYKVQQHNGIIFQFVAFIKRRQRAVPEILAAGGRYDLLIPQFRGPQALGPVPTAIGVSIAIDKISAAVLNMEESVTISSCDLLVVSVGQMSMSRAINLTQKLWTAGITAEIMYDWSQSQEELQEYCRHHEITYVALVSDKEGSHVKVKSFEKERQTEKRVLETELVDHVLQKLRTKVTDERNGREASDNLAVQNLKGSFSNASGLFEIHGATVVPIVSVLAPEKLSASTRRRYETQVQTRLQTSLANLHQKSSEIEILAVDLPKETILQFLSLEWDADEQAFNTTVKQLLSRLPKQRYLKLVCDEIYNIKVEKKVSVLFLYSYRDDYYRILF

SMILES	IC50 [nM]
Cc1cnc(Nc2cc(C)n(C)n2)nc1-c1c[nH]c2c(NC(=O)CN3CC[C@@H](C(=O)N4CCNC(=O)C4)C3)cccc12 [Example 66, (R)-N-(3-(2-((1,5-dimethyl-1H-pyrazol-3-yl)amino)-5-methylpyrimidin-4-yl)-1H-indol-7-yl)-2-(3-(3-oxopiperazine-1-carbonyl)pyrrolidin-1-yl)acetamide]	100 to 1000
Cc1cnc(Nc2cc(C)n(C)n2)nc1-c1c[nH]c2c(NC(=O)CN3CC[C@@H](C(=O)N4CCOCC4)C3)cccc12 [Example 67, (R)-N-(3-(2-((1,5-dimethyl-1H-pyrazol-3-yl)amino)-5-methylpyrimidin-4-yl)-1H-indol-7-yl)-2-(3-(morpholine-4-carbonyl)pyrrolidin-1-yl)acetamide]	100 to 1000
Cc1cnc(Nc2cc(C)n(C)n2)nc1-c1c[nH]c2c(NC(=O)CN3CC[C@@H](C(=O)N4CCSCC4)C3)cccc12 [Example 68, (R)-N-(3-(2-((1,5-dimethyl-1H-pyrazol-3-yl)amino)-5-methylpyrimidin-4-yl)-1H-indol-7-yl)-2-(3-(thiomorpholine-4-carbonyl)pyrrolidin-1-yl)acetamide]	10 to 100
Cc1cnc(Nc2cc(C)n(C)n2)nc1-c1c[nH]c2c(NC(=O)CN3CC[C@H](C(=O)N4CC=CCC4)C3)cccc12 [Example 69, (S)-N-(3-(2-((1,5-dimethyl-1H-pyrazol-3-yl)amino)-5-methylpyrimidin-4-yl)-1H-indol-7-yl)-2-(3-(1,2,3,6-tetrahydropyridine-1-carbonyl)pyrrolidin-1-yl)acetamide]	10 to 100
Cc1cnc(Nc2cc(C)n(C)n2)nc1-c1c[nH]c2c(NC(=O)CN3CCC(O)C3)cccc12 (centres unmarked) [Example 70, N-(3-(2-((1,5-dimethyl-1H-pyrazol-3-yl)amino)-5-methylpyrimidin-4-yl)-1H-indol-7-yl)-2-(3-hydroxypyrrolidin-1-yl)acetamide]	10 to 100
Cc1cnc(Nc2cc(C)n(C)n2)nc1-c1c[nH]c2c(NC(=O)CN3CC[C@@H](O)C3)cccc12 [Example 71, (R)-N-(3-(2-((1,5-dimethyl-1H-pyrazol-3-yl)amino)-5-methylpyrimidin-4-yl)-1H-indol-7-yl)-2-(3-hydroxypyrrolidin-1-yl)acetamide]	10 to 100
Cc1cnc(Nc2cc(C)n(C)n2)nc1-c1c[nH]c2c(NC(=O)CN3CC[C@H](O)C3)cccc12 [Example 72, (S)-N-(3-(2-((1,5-dimethyl-1H-pyrazol-3-yl)amino)-5-methylpyrimidin-4-yl)-1H-indol-7-yl)-2-(3-hydroxypyrrolidin-1-yl)acetamide]	10 to 100
Cc1cnc(Nc2cc(C)n(C)n2)nc1-c1c[nH]c2c(NC(=O)CN3CC[C@H](Oc4ccccn4)C3)cccc12 [Example 73, (S)-N-(3-(2-((1,5-dimethyl-1H-pyrazol-3-yl)amino)-5-methylpyrimidin-4-yl)-1H-indol-7-yl)-2-(3-(pyridin-2-yloxy)pyrrolidin-1-yl)acetamide]	10 to 100
Cc1cnc(Nc2cc(C)n(C)n2)nc1-c1c[nH]c2c(NC(=O)CN3CCC(Oc4ccncc4)C3)cccc12 (centres unmarked) [Example 76, N-(3-(2-((1,5-dimethyl-1H-pyrazol-3-yl)amino)-5-methylpyrimidin-4-yl)-1H-indol-7-yl)-2-(3-(pyridin-4-yloxy)pyrrolidin-1-yl)acetamide]	< 10
Cc1cnc(Nc2cc(C)n(C)n2)nc1-c1c[nH]c2c(NC(=O)CN3CC[C@@H](Oc4ccncc4)C3)cccc12 [Example 77, (R)-N-(3-(2-((1,5-dimethyl-1H-pyrazol-3-yl)amino)-5-methylpyrimidin-4-yl)-1H-indol-7-yl)-2-(3-(pyridin-4-yloxy)pyrrolidin-1-yl)acetamide]	10 to 100
Cc1cnc(Nc2cc(C)n(C)n2)nc1-c1c[nH]c2c(NC(=O)CN3CC[C@H](Oc4ccncn4)C3)cccc12 [Example 78, (S)-N-(3-(2-((1,5-dimethyl-1H-pyrazol-3-yl)amino)-5-methylpyrimidin-4-yl)-1H-indol-7-yl)-2-(3-(pyrimidin-4-yloxy)pyrrolidin-1-yl)acetamide]	< 10
Cc1cnc(Nc2cc(C)n(C)n2)nc1-c1c[nH]c2c(NC(=O)CN3CC[C@H](Oc4cnccn4)C3)cccc12 [Example 79, (S)-N-(3-(2-((1,5-dimethyl-1H-pyrazol-3-yl)amino)-5-methylpyrimidin-4-yl)-1H-indol-7-yl)-2-(3-(pyrazin-2-yloxy)pyrrolidin-1-yl)acetamide]	< 10
Cc1cnc(Nc2cc(C)n(C)n2)nc1-c1c[nH]c2c(NC(=O)CN3CC[C@H](Oc4ccc(F)cc4)C3)cccc12 [Example 80, (S)-N-(3-(2-((1,5-dimethyl-1H-pyrazol-3-yl)amino)-5-methylpyrimidin-4-yl)-1H-indol-7-yl)-2-(3-(4-fluorophenoxy)pyrrolidin-1-yl)acetamide]	100 to 1000
Cc1cnc(Nc2cc(C)n(C)n2)nc1-c1c[nH]c2c(NC(=O)CN3CC[C@H](Oc4cccc(F)c4)C3)cccc12 [Example 81, (S)-N-(3-(2-((1,5-dimethyl-1H-pyrazol-3-yl)amino)-5-methylpyrimidin-4-yl)-1H-indol-7-yl)-2-(3-(3-fluorophenoxy)pyrrolidin-1-yl)acetamide]	100 to 1000
Cc1cnc(Nc2cc(C)n(C)n2)nc1-c1c[nH]c2c(NC(=O)CN3CC[C@H](Oc4ccc(Cl)cc4)C3)cccc12 [Example 82, (S)-2-(3-(4-chlorophenoxy)pyrrolidin-1-yl)-N-(3-(2-((1,5-dimethyl-1H-pyrazol-3-yl)amino)-5-methylpyrimidin-4-yl)-1H-indol-7-yl)acetamide]	100 to 1000

Continued, values first:

IC50 [nM]	SMILES
10 to 100	Cc1cnc(Nc2cc(C)n(C)n2)nc1-c1c[nH]c2c(NC(=O)CN3CC[C@H](Oc4ccc(F)cc4F)C3)cccc12 [Example 83, (S)-2-(3-(2,4-difluorophenoxy)pyrrolidin-1-yl)-N-(3-(2-((1,5-dimethyl-1H-pyrazol-3-yl)amino)-5-methylpyrimidin-4-yl)-1H-indol-7-yl)acetamide]
100 to 1000	Cc1cnc(Nc2cc(C)n(C)n2)nc1-c1c[nH]c2c(NC(=O)CN3CC[C@H](Oc4ccc(F)c(F)c4)C3)cccc12 [Example 84, (S)-2-(3-(3,4-difluorophenoxy)pyrrolidin-1-yl)-N-(3-(2-((1,5-dimethyl-1H-pyrazol-3-yl)amino)-5-methylpyrimidin-4-yl)-1H-indol-7-yl)acetamide]
100 to 1000	Cc1cnc(Nc2cc(C)n(C)n2)nc1-c1c[nH]c2c(NC(=O)CN3CC[C@H](Oc4ccc(F)cc4Cl)C3)cccc12 [Example 85]
100 to 1000	Cc1cnc(Nc2cc(C)n(C)n2)nc1-c1c[nH]c2c(NC(=O)CN3CC[C@H](Oc4cc(F)cc(F)c4)C3)cccc12 [Example 86]
10 to 100	Cc1cnc(Nc2cc(C)n(C)n2)nc1-c1c[nH]c2c(NC(=O)CN3CC[C@H](Oc4ccc(F)c(N)c4)C3)cccc12 [Example 87, (S)-2-(3-(3-amino-4-fluorophenoxy)pyrrolidin-1-yl)-N-(3-(2-((1,5-dimethyl-1H-pyrazol-3-yl)amino)-5-methylpyrimidin-4-yl)-1H-indol-7-yl)acetamide]
100 to 1000	CCN(CC)c1cccc(O[C@H]2CCN(CC(=O)Nc3cccc4c(-c5nc(Nc6cc(C)n(C)n6)ncc5C)c[nH]c34)C2)c1 [Example 88]
100 to 1000	Cc1cnc(Nc2cc(C)n(C)n2)nc1-c1c[nH]c2c(NC(=O)CN3CC[C@H](Oc4cccc(N)c4)C3)cccc12 [Example 89]
< 10	Cc1cnc(Nc2cc(C)n(C)n2)nc1-c1c[nH]c2c(NC(=O)CN3CC[C@H](Oc4ccnc(N)c4)C3)cccc12 [Example 90]
